The text below walks through data of patent US20130005660A1, “Plasma Activation of Biological Materials for Surface Modification” (ORTHOBOND, INC., priority 2011, published 2013).

The series is described as follows: Stability of gentamicin in 0.25M HCl under autoclave conditions. Format: physicochemical.

gentamicin: the stability of gentamicin entry was “No significant loss of gentamicin detection”.
